Experimental data from article PMC11399425, “Tricyclic and tetracyclic antidepressants upregulate VMAT2 activity and rescue disease-causing VMAT2 variants” (Neuropsychopharmacology, 2024).

Experiments:
VMAT2 [1] = biological target: T1, VMAT2 (Mus musculus, UniProt Q8BRU6); assay: FFN206 uptake upregulation assay (18-h treatment, washout) in HEK-VMAT2 cells; format: cell-based; design: The full-length mouse and human SLC18A2 cDNAs encoding VMAT2 were cloned into pcDNA3.1 vectors; expressed in transfected cells; conditions: for Emax, % vehicle (mean ± SEM) / EC50: 18 h treatment followed by washout; for Emax, % vehicle (mean ± SEM): at Emax concentration; for Emax concentration: 18 h treatment, concentration giving Emax; for Hill slope (upregulation): 18 h upregulation curve fit; for Effect on VMAT2 activity, sustained: 10 μM, washout, vs vehicle; for Effect on VMAT2 activity, sustained / Effect on VMAT2 activity, sustained, known VMAT2 inhibitors: 18 h; for EC50: HEK-VMAT2 cells, read-out: EC50 (95% CI), VMAT2 upregulation; for Effect on VMAT2 activity, sustained, known VMAT2 inhibitors: increasing concentrations (Fig. S5)
VMAT2 [2] = biological target: T1, VMAT2; assay: FFN206 uptake inhibition assay (30-min treatment) in HEK-VMAT2 cells; conditions: for Hill Slope (inhibition): 30 min inhibition curve fit; for Imax, % vehicle (mean ± SEM): VMAT2 activity at 100 μM compound, 30 min, normalized to vehicle (100%)
Experimental: We detected colocalization of VMAT2 and FFN206 using epifluorescence microscopy (Fig. S2) and used FFN206 uptake to measure VMAT2 activity in HEK cells stably expressing mouse VMAT2 (HEK-VMAT2). We tested seven tricyclics and three tetracyclics that are approved for clinical use in humans (Fig. 1A, B). […] Next, we assessed the potency of the tricyclics and tetracyclics using dose response experiments.
For the inhibition assay, HEK-VMAT2 cells were seeded at 50,000 cells/well on day 1. […] Cells were incubated with FFN206 for 1hr. FFN206 uptake was terminated by aspirating the medium, and cells were washed twice with 200μL warm PBS (supplemented with 500μM MgCl2 and 900μM CaCl2), each with 5min incubation. Subsequently, 100μL warm PBS was added to each well and the plate was read with a Mithras LB 940 plate reader at excitation/emission filters 380nm/450nm.

hDAT mRNA = assay: RT-qPCR of hDAT in HEK-YFP-DAT cells; format: cell-based, human; conditions: 100 μM, 18 h, HEK293 cells
Experimental: (§3) HEK-VMAT2, HEK-YFP-DAT, HEK-SERT, and BE(2)-M17 cells were seeded in 6-well tissue culture plates at 1,000,000 cells/well density. […] On the third day, medium was aspirated and the cells were directly collected in 1 mL/well of Trizol for RNA isolation [26]. RNA was reverse-transcribed into cDNA using the SuperScript™ IV VILO™ Master Mix with ezDNase™ Enzyme. Quantitative RT-qPCR was performed using PowerUp™ SYBR™ Green Master Mix and QuantStudio 3 Real-Time PCR System (ThermoFisher Scientific). The relative fold of gene expression was calculated as 2^-(∆∆Ct) normalized to GAPDH levels.

hSERT mRNA = assay: RT-qPCR of hSERT in HEK-SERT cells; conditions: 100 μM, 18 h, HEK293 cells
Experimental: as §3

[3] = system: monoamine transporter mRNA (VMAT2, VMAT1, DAT, NET, SERT); assay: RT-qPCR of endogenous monoamine transporters mRNA in BE(2)-M17 cells; format: cell-based, human; conditions: 10 μM, 18 h
Experimental: as §3

VMAT2 [4] = biological target: T1, VMAT2; conditions: 100 μM, 18 h, HEK-VMAT2 cells
Experimental: (§1) HEK293, HEK-VMAT2, HEK-YFP-DAT, and HEK-SERT cells were seeded at 5,000,000 cells/dish density in 10 cm tissue culture dishes. […] On the collection day, cells were washed once with cold PBS, then harvested with 2 mL Tris-EDTA buffer (25 mM Tris-HCl, 1 mM EDTA, pH 7.4) containing freshly-added protease/phosphatase inhibitors. The cells were mechanically lysed on ice by Polytron (medium setting, 5 sec on, 5 sec off, two cycles), and centrifuged at 800 x g for 10 min at 4 °C to pellet the nuclear fraction. […] The supernatant was discarded and the pellet containing membrane proteins was resuspended with Tris-EDTA buffer with inhibitors and 0.2% SDS by vortexing until the pellet was dissolved. The protein concentration was determined using Pierce™ BCA Protein Assay Kits following the manufacturer’s instructions.
(§2) Electrophoretic resolution was done in MOPS-SDS running buffer (50 mM MOPS, 50 mM Tris, 0.1% SDS, 1 mM EDTA). The proteins were transferred onto a […] PVDF membrane and stained using Revert™ 700 Total Protein Stain. The resolved proteins were visualized at 700 nm on an Odyssey® M imaging system (LI-COR, Inc.). […] For the VMAT2 blot, the membrane was incubated with rabbit serum (in 50% glycerol) containing anti-mVMAT2 antibody against C-terminal peptide ([…]) at 1:3000 dilution overnight at 4 °C [24]. For the YFP-DAT blot, the membrane was incubated with rabbit-anti-GFP antibody (A11122) at 1:1500 dilution for 2 h at room temperature. For the SERT blot, the membrane was incubated with rabbit anti-SERT antibody (A104336, Antibodies.com) at 1:1000 dilution overnight at 4 °C. IRDye® 800CW Goat anti-Rabbit IgG secondary antibody at 1:7000 dilution in 3% non-fat milk in TBST was used for all blots. The blots were visualized under 700 nm and 800 nm channels on the Odyssey® M imaging system (LI-COR, Inc.) and quantified using ImageJ and Empiria Studio.

DAT (SLC6A3) = DAT (SLC6A3) (Homo sapiens, UniProt Q01959); conditions: 100 μM, 18 h, HEK-YFP-DAT cells
Experimental: as §1, §2

mVMAT2 mRNA = assay: RT-qPCR of mVMAT2 in HEK-VMAT2 cells; conditions: 100 μM, 18 h, HEK293 cells
Experimental: as §3

[5] = system: nine missense VMAT2 BMVTD variants; assay: FFN206 uptake of transiently transfected VMAT2 BMVTD variants in HEK293T cells; format: cell-based, human; conditions: 50 μM, 18 h, total FFN206 fluorescence
SERT (SLC6A4) = biological target: T2, SERT (SLC6A4) (Homo sapiens, UniProt P31645); format: cell-based
T2 construct: expressed in transfected cells
Experimental: as §1
Electrophoretic resolution was done in MOPS-SDS running buffer (50 mM MOPS, 50 mM Tris, 0.1% SDS, 1 mM EDTA). The proteins were transferred onto a […] PVDF membrane and stained using Revert™ 700 Total Protein Stain. The resolved proteins were visualized at 700 nm on an Odyssey® M imaging system (LI-COR, Inc.). […] The blots were visualized under 700 nm and 800 nm channels on the Odyssey® M imaging system (LI-COR, Inc.) and quantified using ImageJ and Empiria Studio.

VMAT2 [6] = biological target: VMAT2 (Homo sapiens, UniProt Q05940); conditions: 10 μM, 18 h, BE(2)-M17 cells
VMAT2 P237H = VMAT2 P237H (Homo sapiens, UniProt Q05940, P237H); conditions: 18 h, increasing concentration
VMAT2 P387L = VMAT2 P387L (Homo sapiens, UniProt Q05940, P387L); conditions: 18 h, increasing concentration
[7] = ref PubChem; cited from earlier work

| Emax, % vehicle (mean ± SEM) (VMAT2 [1]) | Emax concentration (VMAT2 [1]) | Hill slope (upregulation) (VMAT2 [1]) | IC50 (VMAT2 [2]) | Hill Slope (inhibition) (VMAT2 [2]) | Imax, % vehicle (mean ± SEM) (VMAT2 [2]) | SMILES | Effect on VMAT2 activity, sustained (VMAT2 [1]) | EC50 (VMAT2 [1]) | also measured |
| --- | --- | --- | --- | --- | --- | --- | --- | --- | --- |
| 237.26 ± 7.63 % vehicle | 31.62 µM | 1.728 | 12.4 µM | –1.173 | 8.47 ± 1.88 % vehicle | CN(C)CCC=C1c2ccccc2CCc2ccccc21 [AMI, Amitriptyline] |  |  |  |
|  |  |  |  |  |  | CN1CCN2c3ccccc3Cc3ccccc3C2C1 (stereo not shown) [MIA, Mianserin] |  |  | Endogenous VMAT2 activity (VMAT2 [6]; followed by washout): 270 % of vehicle; Endogenous VMAT2 activity without washout (VMAT2 [6]; without drug washout): significant upregulation of endogenous VMAT2 activity; Variant VMAT2 activity, dose-response (VMAT2 P237H): dose-dependent upregulation; Variant VMAT2 activity, dose-response (VMAT2 P387L): dose-dependent upregulation; Total DAT protein (DAT (SLC6A3)): did not affect total DAT protein; logP [7]: 3.4; Activity of all VMAT2 variants [5]: significant upregulation of activity of all VMAT2 variants |
| 175.11 ± 7.95 % vehicle | 100 µM | 2.486 | 170 µM | –0.978 | 63.27 ± 7.1 % vehicle | CN1CCN2c3ncccc3Cc3ccccc3C2C1 (stereo not shown) [MIR, mirtazapine] |  | 35.1 µM |  |
| 223.92 ± 11.02 % vehicle | 31.62 µM | 0.777 | 4.35 µM | –1.042 | 2.93 ± 0.24 % vehicle | CNCCCC1c2ccccc2C=Cc2ccccc21 [PRO, Protriptyline] | significant upregulation of VMAT2 activity |  |  |
|  |  |  | 0.037 µM | –0.598 | 9.51 ± 0.67 % vehicle | COc1cc2c(cc1OC)C1CC(=O)C(CC(C)C)CN1CC2 (stereo not shown) [TBZ, tetrabenazine] |  |  | Effect on VMAT2 activity, sustained, known VMAT2 inhibitors (VMAT2 [1]): no upregulation of VMAT2 activity was observed |
| 194.63 ± 22.32 % vehicle | 100 µM | 1.939 | 13.1 µM | –1.173 | 5.87 ± 1.33 % vehicle | CC(CN(C)C)CN1c2ccccc2CCc2ccccc21 (stereo not shown) [TRI, Trimipramine] | significant upregulation of VMAT2 activity | 31.1 µM |  |
|  |  |  |  |  |  | O=C(CCCN1CCC(O)(c2ccc(Cl)cc2)CC1)c1ccc(F)cc1 [haloperidol] |  |  | Effect on VMAT2 activity, sustained, known VMAT2 inhibitors (VMAT2 [1]): no upregulation of VMAT2 activity was observed |

| SMILES | Emax, % vehicle (mean ± SEM) (VMAT2 [1]) | Emax concentration (VMAT2 [1]) | Hill slope (upregulation) (VMAT2 [1]) | IC50 (VMAT2 [2]) | Hill Slope (inhibition) (VMAT2 [2]) | Imax, % vehicle (mean ± SEM) (VMAT2 [2]) | Effect on VMAT2 activity, sustained (VMAT2 [1]) | EC50 (VMAT2 [1]) | also measured |
| --- | --- | --- | --- | --- | --- | --- | --- | --- | --- |
| CNCCCN1c2ccccc2CCc2ccccc21 [DES, Desipramine] | 177.59 ± 5.96 % vehicle | 56.23 µM | 1.530 | 16.2 µM | –1.176 | 7.51 ± 1.28 % vehicle | significant upregulation of VMAT2 activity | 17.1 µM |  |
| CN(C)CCCN1c2ccccc2CCc2ccccc21 [IMI, Imipramine] | 245.36 ± 15.06 % vehicle |  | 1.505 | 17.3 µM | –1.195 |  | significant upregulation of VMAT2 activity | 29.9 µM | DAT mRNA expression (hDAT mRNA): elevated mRNA expression; Emax, % vehicle (mean ± SEM) (VMAT2 [1]; listed as imipramine): 245.36 % vehicle; SERT mRNA expression (hSERT mRNA): elevated mRNA expression; Monoamine transporter mRNA (including VMAT2) [3]: no upregulation in any monoamine transporter mRNA; Total VMAT2 protein (VMAT2 [4]): significant increase; Total DAT protein (DAT (SLC6A3)): did not affect total DAT protein; VMAT2 mRNA expression (mVMAT2 mRNA): elevated mRNA expression; Activity of all VMAT2 variants [5]: significant upregulation of activity of all VMAT2 variants; Total SERT protein (SERT (SLC6A4)): significantly increased total SERT protein |
| CNCCC=C1c2ccccc2CCc2ccccc21 [NOR, Nortriptyline] | 207.90 ± 18.90 % vehicle | 31.62 µM | 0.915 | 13.3 µM | –0.920 | 8.73 ± 1.11 % vehicle | significant upregulation of VMAT2 activity |  |  |
